Values quoted from earlier work as cited in publication PMC2692938 (Nuclear medicine and biology, 2009).

Tested on: αvβ3
Settings: selective αvβ3 antagonist

IC50 values: lower nanomolar range
Substance: c(RGDfV)
